Source: ChEMBL document CHEMBL1201862, “PubChem BioAssay data set” (2004)
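A five-concentration, 48-hour dose response in 96-well plates underlies each endpoint, interpolated linearly between surrounding concentrations. GI50 marks 50% less growth.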 Calls of active or inactive are those of the source. Rule as the data show it: active = GI50 up to about 1.1 µM and inactive = higher.

Columns and labels:
Assay in all cases: inhibition of tumour cell growth, NCI panel, 48 h
[1] = test system: MOLT-4
[2] = test system: T47D
[3] = test system: SW-620
[4] = test system: IGROV-1
[5] = test system: Hs-578T
[6] = test system: SK-MEL-28
[7] = test system: SN12C
[8] = test system: SF-539
[9] = test system: NCI/ADR-RES
[10] = test system: OVCAR-3
[11] = test system: NCI-H522
[12] = test system: OVCAR-4
[13] = test system: RPMI-8226
[14] = test system: SF-295
[15] = test system: A498
[16] = test system: MDA-MB-231
[17] = test system: UACC-257
[18] = test system: NCI-H226
[19] = test system: U-251
[20] = test system: M14

Compound: C/C(=N\NC(=S)Nc1ccc(C)cc1)c1nc2cccnc2[nH]1
- GI50 [1]: 1.27 µM (inactive)
- GI50 [2]: 0.406 µM (active)
- GI50 [3]: 3.57 µM (inactive)
- GI50 [4]: 2.31 µM (inactive)
- GI50 [5]: 10.8 µM (inactive)
- GI50 [6]: 2.86 µM (inactive)
- GI50 [7]: 2.32 µM (inactive)
- GI50 [8]: 1.14 µM (inactive)
- GI50 [9]: 4.04 µM (inactive)
- GI50 [10]: 0.483 µM (active)
- GI50 [11]: 0.986 µM (active)
- GI50 [12]: 0.25 µM (active)
- GI50 [13]: 3.01 µM (inactive)
- GI50 [14]: 3.07 µM (inactive)
- GI50 [15]: 7.71 µM (inactive)
- GI50 [16]: 1.17 µM (inactive)
- GI50 [17]: 2.38 µM (inactive)
- GI50 [18]: 1.78 µM (inactive)
- GI50 [19]: 1.45 µM (inactive)

Compound: COc1ccc(OC)c2c1C(=O)C(O)=C(Cl)C2=O
- GI50 [1]: > 100 µM (inactive)
- GI50 [2]: > 100 µM (inactive)
- GI50 [3]: > 100 µM (inactive)
- GI50 [4]: > 100 µM (inactive)
- GI50 [5]: > 100 µM (inactive)
- GI50 [6]: > 100 µM (inactive)
- GI50 [20]: > 100 µM (inactive)
- GI50 [8]: > 100 µM (inactive)
- GI50 [9]: > 100 µM (inactive)
- GI50 [10]: > 100 µM (inactive)
- GI50 [11]: > 100 µM (inactive)
- GI50 [12]: > 100 µM (inactive)
- GI50 [13]: > 100 µM (inactive)
- GI50 [14]: > 100 µM (inactive)
- GI50 [15]: > 100 µM (inactive)
- GI50 [16]: > 100 µM (inactive)
- GI50 [17]: > 100 µM (inactive)
- GI50 [18]: > 100 µM (inactive)
- GI50 [19]: > 100 µM (inactive)

Compound: CN(C)CCCNC(=O)CCNC(=O)c1cc(NC(=O)c2cc(NC(=O)c3cc(NC(=O)c4nccn4C)cn3C)cn2C)cn1C
- GI50 [1]: > 100 µM (inactive)
- GI50 [2]: 31 µM (inactive)
- GI50 [3]: > 100 µM (inactive)
- GI50 [4]: > 100 µM (inactive)
- GI50 [5]: > 100 µM (inactive)
- GI50 [6]: > 100 µM (inactive)
- GI50 [7]: > 100 µM (inactive)
- GI50 [20]: > 100 µM (inactive)
- GI50 [8]: 54.6 µM (inactive)
- GI50 [9]: > 100 µM (inactive)
- GI50 [10]: > 78.2 µM (inactive)
- GI50 [11]: 5.47 µM (inactive)
- GI50 [13]: > 100 µM (inactive)
- GI50 [14]: > 100 µM (inactive)
- GI50 [15]: > 100 µM (inactive)
- GI50 [16]: > 100 µM (inactive)
- GI50 [17]: > 100 µM (inactive)
- GI50 [18]: > 100 µM (inactive)
- GI50 [19]: 13.4 µM (inactive)

Compound: CC(=O)C1(C)CC(C#N)(C#N)C(C#N)=C1N (stereo not drawn)
- GI50 [1]: > 100 µM (inactive)
- GI50 [2]: > 100 µM (inactive)
- GI50 [3]: > 100 µM (inactive)
- GI50 [4]: > 100 µM (inactive)
- GI50 [5]: > 100 µM (inactive)
- GI50 [7]: > 100 µM (inactive)
- GI50 [20]: > 100 µM (inactive)
- GI50 [8]: > 100 µM (inactive)
- GI50 [9]: > 100 µM (inactive)
- GI50 [10]: > 100 µM (inactive)
- GI50 [11]: > 100 µM (inactive)
- GI50 [12]: > 100 µM (inactive)
- GI50 [13]: > 100 µM (inactive)
- GI50 [14]: > 100 µM (inactive)
- GI50 [15]: > 100 µM (inactive)
- GI50 [16]: > 100 µM (inactive)
- GI50 [17]: > 100 µM (inactive)
- GI50 [18]: > 100 µM (inactive)
- GI50 [19]: > 100 µM (inactive)

Compound: Cc1ccc(S(=O)(=O)C2=Cc3ccccc3C2(O)c2ccccc2)cc1 (stereo not drawn)
- GI50 [1]: 29.2 µM (inactive)
- GI50 [2]: 34.3 µM (inactive)
- GI50 [3]: 29.8 µM (inactive)
- GI50 [4]: 47.1 µM (inactive)
- GI50 [5]: 22.6 µM (inactive)
- GI50 [6]: 16.3 µM (inactive)
- GI50 [7]: 17.4 µM (inactive)
- GI50 [20]: 13.5 µM (inactive)
- GI50 [8]: 24 µM (inactive)
- GI50 [9]: 25.5 µM (inactive)
- GI50 [11]: 21.5 µM (inactive)
- GI50 [13]: 15.8 µM (inactive)
- GI50 [14]: 25.4 µM (inactive)
- GI50 [15]: > 10 µM (inactive)
- GI50 [16]: 17.7 µM (inactive)
- GI50 [17]: > 10 µM (inactive)
- GI50 [18]: 29.3 µM (inactive)
- GI50 [19]: 26.7 µM (inactive)

Compound: CCN1C(NCCO)=NS(=O)(=O)c2ccccc21
- GI50 [1]: > 100 µM (inactive)
- GI50 [2]: > 100 µM (inactive)
- GI50 [3]: > 100 µM (inactive)
- GI50 [4]: > 100 µM (inactive)
- GI50 [5]: > 100 µM (inactive)
- GI50 [6]: > 100 µM (inactive)
- GI50 [7]: > 100 µM (inactive)
- GI50 [20]: > 100 µM (inactive)
- GI50 [8]: > 100 µM (inactive)
- GI50 [9]: > 100 µM (inactive)
- GI50 [10]: > 100 µM (inactive)
- GI50 [11]: > 100 µM (inactive)
- GI50 [12]: > 100 µM (inactive)
- GI50 [14]: > 100 µM (inactive)
- GI50 [15]: > 100 µM (inactive)
- GI50 [16]: > 100 µM (inactive)
- GI50 [17]: > 100 µM (inactive)
- GI50 [18]: > 100 µM (inactive)
- GI50 [19]: > 100 µM (inactive)

Compound: Clc1ccccc1/C=C/c1ccnc2ccccc12
- GI50 [2]: 13.6 µM (inactive)
- GI50 [3]: 18.4 µM (inactive)
- GI50 [4]: 15.8 µM (inactive)
- GI50 [5]: 20.7 µM (inactive)
- GI50 [6]: 19.6 µM (inactive)
- GI50 [7]: 16.4 µM (inactive)
- GI50 [20]: 17.3 µM (inactive)
- GI50 [8]: 18.4 µM (inactive)
- GI50 [9]: 15.2 µM (inactive)
- GI50 [10]: 14.5 µM (inactive)
- GI50 [11]: 14.3 µM (inactive)
- GI50 [12]: 16.1 µM (inactive)
- GI50 [13]: 7.8 µM (inactive)
- GI50 [14]: 15.7 µM (inactive)
- GI50 [15]: 18.8 µM (inactive)
- GI50 [16]: 22.9 µM (inactive)
- GI50 [17]: 15.1 µM (inactive)
- GI50 [18]: 16.8 µM (inactive)
- GI50 [19]: 16.8 µM (inactive)

Compound: CC(C)(C)OC(=O)Cn1ncn(NC(=O)Cc2ccccc2)c1=O
- GI50 [1]: > 10 µM (inactive)
- GI50 [2]: > 10 µM (inactive)
- GI50 [3]: > 10 µM (inactive)
- GI50 [4]: > 10 µM (inactive)
- GI50 [5]: > 10 µM (inactive)
- GI50 [6]: > 10 µM (inactive)
- GI50 [7]: > 10 µM (inactive)
- GI50 [20]: > 10 µM (inactive)
- GI50 [8]: > 10 µM (inactive)
- GI50 [9]: > 10 µM (inactive)
- GI50 [10]: > 10 µM (inactive)
- GI50 [11]: > 10 µM (inactive)
- GI50 [12]: > 10 µM (inactive)
- GI50 [14]: > 10 µM (inactive)
- GI50 [15]: > 10 µM (inactive)
- GI50 [16]: > 10 µM (inactive)
- GI50 [17]: > 10 µM (inactive)
- GI50 [18]: > 10 µM (inactive)
- GI50 [19]: > 10 µM (inactive)

Compound: O=C1CCCc2cc3c(cc21)CC1(Cc2ccccc2C1)C3
- GI50 [1]: 3.52 µM (inactive)
- GI50 [2]: 5.24 µM (inactive)
- GI50 [4]: 7.43 µM (inactive)
- GI50 [5]: 7.59 µM (inactive)
- GI50 [7]: 4.52 µM (inactive)
- GI50 [20]: 4.33 µM (inactive)
- GI50 [8]: 3.89 µM (inactive)
- GI50 [9]: 6 µM (inactive)
- GI50 [10]: 2.56 µM (inactive)
- GI50 [11]: 3.94 µM (inactive)
- GI50 [12]: 6.31 µM (inactive)
- GI50 [13]: 4.35 µM (inactive)
- GI50 [14]: 4.03 µM (inactive)
- GI50 [15]: 9.12 µM (inactive)
- GI50 [16]: 8.18 µM (inactive)
- GI50 [17]: 3.48 µM (inactive)
- GI50 [18]: 2.03 µM (inactive)
- GI50 [19]: 5.38 µM (inactive)

Compound: CN(C)/C=C/c1nnc([N+](=O)[O-])s1
- GI50 [2]: 15.3 µM (inactive)
- GI50 [3]: 16.8 µM (inactive)
- GI50 [5]: 14.5 µM (inactive)
- GI50 [7]: 18.8 µM (inactive)
- GI50 [20]: 14.6 µM (inactive)
- GI50 [8]: 8.79 µM (inactive)
- GI50 [9]: 16.5 µM (inactive)
- GI50 [10]: 2.65 µM (inactive)
- GI50 [11]: 1.66 µM (inactive)
- GI50 [13]: < 0.01 µM (active)
- GI50 [14]: 13.8 µM (inactive)
- GI50 [15]: 32 µM (inactive)
- GI50 [16]: 18.2 µM (inactive)
- GI50 [17]: 14.2 µM (inactive)
- GI50 [18]: 20.5 µM (inactive)
- GI50 [19]: 17.7 µM (inactive)

Compound: COC(=O)[C@H](Cc1ccccc1)NC(=O)N(CCC#N)CCCCN(CCC#N)C(=O)N[C@@H](Cc1ccccc1)C(=O)OC
- GI50 [1]: > 100 µM (inactive)
- GI50 [2]: > 100 µM (inactive)
- GI50 [3]: > 100 µM (inactive)
- GI50 [5]: > 100 µM (inactive)
- GI50 [6]: > 100 µM (inactive)
- GI50 [7]: > 100 µM (inactive)
- GI50 [20]: > 100 µM (inactive)
- GI50 [9]: > 100 µM (inactive)
- GI50 [10]: > 100 µM (inactive)
- GI50 [11]: > 100 µM (inactive)
- GI50 [12]: > 100 µM (inactive)
- GI50 [13]: > 100 µM (inactive)
- GI50 [14]: > 100 µM (inactive)
- GI50 [15]: > 100 µM (inactive)
- GI50 [16]: > 100 µM (inactive)
- GI50 [17]: > 100 µM (inactive)
- GI50 [18]: > 100 µM (inactive)
- GI50 [19]: > 100 µM (inactive)
